Tests used:
14 human cell lines = assay: compounds tested against 14 human cell lines (in vitro); format: cell-based
From the text: What is interesting from these in vitro data is that the activity of these esters is related to the substituents on their side aromatic rings. […] Thus, the difference in activity among the esters of the present invention are due to the different substituents on their side aromatic ring.

[1] = cited from earlier work
[2] = cited from earlier work; remark: listed apart in the source
[3] = animal models; cited from earlier work
[4] = cited from earlier work; remark: listed apart in the source
mouse leukemia L 1210 = details: initial test; cited from earlier work
[5] = patients, early trials; cited from earlier work

20-O-phenyl-9-nitrocamptothecin [CZ176]
activity (response of 14 human cell lines) (14 human cell lines): do not show any activity

CC[C@@]1(O)C(=O)OCc2c1cc1n(c2=O)Cc2cc3c([N+](=O)[O-])cccc3nc2-1 [9-nitrocamptothecin]
found as the lactone form in human plasma [1]: 5% | present as lactone form in mice plasma [2]: about 50%

CC[C@@](O)(C(=O)[O-])c1cc2n(c(=O)c1CO)Cc1cc3ccccc3nc1-2.[Na+] [CPT sodium carboxylate]
potency relative to the parent camptothecin [3]: 10-20% | solubility in water [4]: water-soluble

CC[C@@]1(OC(=O)c2ccccc2)C(=O)OCc2c1cc1n(c2=O)Cc2cc3ccccc3nc2-1 [CZ222]
activity (response of 14 human cell lines) (14 human cell lines): do not show any activity

CC[C@@]1(O)C(=O)OCc2c1cc1n(c2=O)Cc2cc3ccccc3nc2-1 [Camptothecin]
activity against mouse leukemia L 1210 (mouse leukemia L 1210): showed good activity | anticancer activity in human clinical trials [5]: anticancer activity was not found | toxicity in human clinical trials [5]: severe toxicity was observed

— patent US6407239B1, “Aromatic esters of camptothecins and methods to treat cancers” (priority 1999, dated 2002)
